Reference: patent publication US12421191B2, “3-hydroxyoxindole derivatives as CRHR2 antagonist” (RaQualia Pharma Inc., priority 2020, dated 2025)

Molecular target: T1, human CRHR2-alpha (Homo sapiens, UniProt Q13324)
T1 construct: host or cells: CHO-K1
T1 sequence (Q13324 1-411): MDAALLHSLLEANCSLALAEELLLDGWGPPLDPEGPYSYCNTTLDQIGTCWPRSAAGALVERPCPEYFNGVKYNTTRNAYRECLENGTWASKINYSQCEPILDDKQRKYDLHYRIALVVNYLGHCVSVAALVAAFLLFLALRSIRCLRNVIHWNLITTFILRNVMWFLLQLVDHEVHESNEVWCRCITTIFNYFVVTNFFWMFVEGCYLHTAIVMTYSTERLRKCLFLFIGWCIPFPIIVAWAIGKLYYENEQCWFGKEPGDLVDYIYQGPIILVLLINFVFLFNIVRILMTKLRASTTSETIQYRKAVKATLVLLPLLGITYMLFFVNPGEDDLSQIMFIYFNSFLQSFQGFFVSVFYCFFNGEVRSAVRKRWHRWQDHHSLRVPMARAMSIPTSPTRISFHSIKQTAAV
Test: cAMP functional assay for human CRHR2 (LANCE Ultra TR-FRET)
Type: cell-based
Settings: inhibition of cAMP production in CHO-K1 cells stably expressing human CRHR2-alpha, EC90 of human urocortin2 as agonist; read-out: IC50 against CRHR2
Method in brief: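 CHO-K1 cells stably expressing CRHR2-alpha, serum-starved 7 h and cryopreserved, preincubated with compound 30 min at 25° C in HBSS with 0.1% BSA, 0.5 mM IBMX, 5 mM Hepes pH 7.4. EC90 human urocortin2 added for 30 min at 25° C; cAMP read by TR-FRET; IC50 from percent-inhibition curves.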

Structure (SMILES) | IC50
COc1ccc(F)c(C2(O)C(=O)N(C[C@H]3CC[C@H](NC(=O)c4cc(Cl)cnc4C(F)F)CC3)c3cccc(F)c32)c1 (stereo partly shown) [Example 189, 5-chloro-2-(difluoromethyl)-N-((1r,4r)-4-((4-fluoro-3-(2-fluoro-5-methoxyphenyl)-3-hydroxy-2-oxoindolin-1-yl)methyl)cyclohexyl) nicotinamide] | < 200 nM
O=C(N[C@H]1CC[C@H](CN2C(=O)C(O)(c3cccc(Cl)c3F)c3c(F)cccc32)CC1)c1cc(Cl)cnc1C(F)F (stereo partly shown) [Example 190, 5-chloro-N-((1r,4r)-4-((3-(3-chloro-2-fluorophenyl)-4-fluoro-3-hydroxy-2-oxoindolin-1-yl)methyl)cyclohexyl)-2-(difluoromethyl)nicotinamide] | < 200 nM
O=C(N[C@H]1CC[C@H](CN2C(=O)C(O)(c3ccccc3F)c3c(F)cccc32)CC1)c1cc(Cl)cnc1C(F)F (stereo partly shown) [Example 191, 5-chloro-2-(difluoromethyl)-N-((1r,4r)-4-((4-fluoro-3-(2-fluorophenyl)-3-hydroxy-2-oxoindolin-1-yl)methyl)cyclohexyl) nicotinamide] | < 200 nM
O=C(N[C@H]1CC[C@H](CN2C(=O)C(O)(c3cccc(F)c3F)c3c(F)cccc32)CC1)c1cc(Cl)cnc1C(F)F (stereo partly shown) [Example 192, 5-chloro-2-(difluoromethyl)-N-((1r,4r)-4-((3-(2,3-difluorophenyl)-4-fluoro-3-hydroxy-2-oxoindolin-1-yl)methyl)cyclohexyl) nicotinamide] | < 200 nM
